Biological target: Non-receptor tyrosine-protein kinase TYK2 (Homo sapiens, UniProt P29597)
Experiment: Reactions were incubated at 22° C. in 384-well polypropylene microtiter plates for 30 minutes and then stopped by addition of 25 μL of an EDTA containing solution (100 mM Hepes pH 7.2, 0.015% Brij-35, 150 mM EDTA), resulting in a final EDTA concentration of 50 mM. Ki values were then determined using the Morrison tight binding model. Morrison, J. F., Biochim. Biophys. Acta. 185:269-296 (1969); William, J. W. and Morrison, J. F., Meth. Enzymol., 63:437-467 (1979).

Chain of Non-receptor tyrosine-protein kinase TYK2 (P29597 whole entry): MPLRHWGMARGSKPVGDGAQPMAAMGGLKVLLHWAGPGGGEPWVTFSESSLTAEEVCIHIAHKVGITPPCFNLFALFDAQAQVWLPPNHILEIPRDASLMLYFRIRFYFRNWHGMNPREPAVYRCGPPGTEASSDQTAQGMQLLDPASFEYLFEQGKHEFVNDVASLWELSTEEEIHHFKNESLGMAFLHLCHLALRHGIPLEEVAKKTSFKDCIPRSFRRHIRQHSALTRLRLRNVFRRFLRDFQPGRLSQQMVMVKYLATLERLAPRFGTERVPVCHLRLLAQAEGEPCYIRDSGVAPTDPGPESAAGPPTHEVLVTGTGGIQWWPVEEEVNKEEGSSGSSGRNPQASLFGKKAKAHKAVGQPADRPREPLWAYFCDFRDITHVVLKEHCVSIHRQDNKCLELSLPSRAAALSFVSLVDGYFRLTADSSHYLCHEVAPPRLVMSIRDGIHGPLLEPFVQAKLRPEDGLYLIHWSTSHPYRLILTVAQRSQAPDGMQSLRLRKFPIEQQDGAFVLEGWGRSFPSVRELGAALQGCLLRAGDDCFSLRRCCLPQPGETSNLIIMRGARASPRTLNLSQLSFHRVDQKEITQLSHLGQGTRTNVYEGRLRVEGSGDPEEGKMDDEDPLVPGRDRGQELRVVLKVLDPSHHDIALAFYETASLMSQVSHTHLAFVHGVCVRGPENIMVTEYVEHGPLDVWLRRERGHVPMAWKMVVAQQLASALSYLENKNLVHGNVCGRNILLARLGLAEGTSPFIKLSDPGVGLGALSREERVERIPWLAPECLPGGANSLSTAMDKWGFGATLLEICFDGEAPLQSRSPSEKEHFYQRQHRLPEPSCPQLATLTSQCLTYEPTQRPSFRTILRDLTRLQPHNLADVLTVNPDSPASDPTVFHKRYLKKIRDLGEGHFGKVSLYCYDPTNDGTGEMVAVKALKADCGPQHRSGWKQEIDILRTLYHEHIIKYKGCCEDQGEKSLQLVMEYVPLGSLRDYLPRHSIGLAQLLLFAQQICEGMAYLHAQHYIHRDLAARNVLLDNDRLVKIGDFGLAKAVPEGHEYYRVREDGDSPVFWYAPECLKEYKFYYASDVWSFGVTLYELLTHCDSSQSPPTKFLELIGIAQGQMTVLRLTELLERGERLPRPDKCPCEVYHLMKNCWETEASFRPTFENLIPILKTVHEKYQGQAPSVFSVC

Compound	Ki [nM]
COC(=O)Nc1nccc2nc(-c3c(Cl)cccc3Cl)sc12	1.4
OC1CN(c2cc(Nc3ncnc4nc(-c5c(Cl)cccc5Cl)sc34)ncn2)C1	87

— ChEMBL document CHEMBL3638741, “Azabenzothiazole compounds, compositions and methods of use” (2014)
